# Results published in publication PMC3285636, “Identification by Virtual Screening and In Vitro Testing of Human DOPA Decarboxylase Inhibitors” (PLoS ONE, 2012).
# Read-outs that look alike come from different tables or passages of the source.
# What was measured:
# pig kidney DDC = conditions: cited from earlier work
# [1] = design: method as in PMID 580398; conditions: animals and humans; cited from earlier work
# human DDC [2] = target: T1, human DDC (Homo sapiens, UniProt P20711); assay: Assay of the inhibitory activity: spectrophotometric measurement of dopamine production by DDC; assay type: biochemical; conditions: for IC50: 0.1 mM L-Dopa, pH 7.4, 25°C, 9 concentrations in duplicate, read-out: IC50; for BE (binding efficiency): binding energy per unit of mass, from Ki and molecular weight in kDa; for Inhibition profile: type of inhibition from Lineweaver–Burk plots
# T1 construct: made in house
# T1 sequence (P20711 1-480): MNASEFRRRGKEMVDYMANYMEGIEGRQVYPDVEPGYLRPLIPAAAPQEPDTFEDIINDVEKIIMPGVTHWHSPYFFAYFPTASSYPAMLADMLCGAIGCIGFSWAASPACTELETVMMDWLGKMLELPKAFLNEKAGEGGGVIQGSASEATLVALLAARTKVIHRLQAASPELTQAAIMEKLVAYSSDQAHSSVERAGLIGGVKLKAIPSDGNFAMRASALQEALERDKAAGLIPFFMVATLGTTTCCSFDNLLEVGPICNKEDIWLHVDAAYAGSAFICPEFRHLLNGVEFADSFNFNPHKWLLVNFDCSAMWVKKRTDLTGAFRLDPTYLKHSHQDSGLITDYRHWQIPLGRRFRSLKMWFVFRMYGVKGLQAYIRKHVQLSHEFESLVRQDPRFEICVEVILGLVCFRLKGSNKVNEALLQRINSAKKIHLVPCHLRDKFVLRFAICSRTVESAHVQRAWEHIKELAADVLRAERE
# Experimental: DDC activity was determined by measuring the production of dopamine with a spectrophotometric assay outlined by Sherald et al. and modified by Charteris and John. The reaction was carried out in 0.1 M potassium phosphate buffer pH 7.4 at 25°C for 1 min and stopped by inactivation of the enzyme at 100°C for 90 sec. The inhibitory assay was performed by measuring the decarboxylase activity of DDC with 50 nM enzyme, 0.1 mM L-Dopa, and 10 µM PLP in the presence and in the absence of a fixed amount of each compound. Various amounts of dimethyl sulphoxyde (DMSO) were necessary to solubilize the compounds in 100 mM potassium phosphate buffer, pH 7.4. […] Compounds were evaluated at 9 concentrations, and each in duplicate. IC50 values were derived by nolinear regression analysis. The related inhibition type of the compounds on human DDC was identified from Lineweaver–Burk plots, and Ki and/or Ki′ values for the inhibitors tested were calculated by the software Origin 7.0.
# human DDC [3] = target: T1, human DDC; assay: Enzyme-ligand equilibrium dissociation constant from visible CD signal changes of DDC; assay type: binding; conditions: change of 420 nm or 335 nm CD band, 100 mM potassium phosphate pH 7.4
# Experimental: The equilibrium dissociation constant for each tested compound from DDC was determined by monitoring the decrease in the 420 nm CD signal of DDC (7 µM) in the presence of various ligand concentrations in 100 mM potassium phosphate buffer, pH 7.4. In any case, the maximun DMSO concentration in the mixture was kept lower than 1% (v/v). The KD values were obtained from the fitting of the data to the equation [drawing 3] where [E]t and [L]t represent the total concentrations of DDC dimer and ligand, respectively, Y refers to the visible CD signal change at 420 nm at the ligand concentration [L], and Ymax refers to the CD signal when all enzyme molecules are complexed with the ligand. CD measurements were performed with a Jasco J-710 spectropolarimeter using quartz cuvettes with 1 cm path length.
# [4] = 50 nM enzyme, L-Dopa, 10 µM PLP, 0.1 M potassium phosphate pH 7.4, 25°C, from Lineweaver–Burk plots, read-out: Ki
SMILES,DDC inhibition in words (pig kidney DDC),Metabolism before reaching the arterial blood [1],"IC50 (human DDC [2]; 50 nM enzyme, 10 µM PLP)",Ki (human DDC [2]; [4]),BE (binding efficiency) (human DDC [2]),Inhibition profile (human DDC [2]),Kd (human DDC [3]),"Ki (human DDC [2]; Ki, competitive inhibition, Table 4, third screening)"
NNCc1ccc(O)c(O)c1O [trihydroxybenzylhydrazine],powerful irreversible DDC inhibitors,,,,,,,
"NC(CO)C(=O)NNCc1ccc(O)c(O)c1O (stereo not drawn) [benserazide, trihydroxybenzylhydrazine seryl derivative]",not a powerful DDC inhibitor,completely metabolized before it reaches the arterial blood,,,,,,
Oc1ccc(/C=N/n2c(S)nnc2-c2ccc(F)cc2)cc1O [Compound 34],,,11 ± 0.8 µM,10.4 ± 3.3 µM,15.8,competitive inhibitors,7.1 ± 0.9 µM,
"C[C@@](Cc1ccc(O)c(O)c1)(NN)C(=O)O [carbidopa, L-α-methyl-α-hydrazino-3,4-dihydroxyphenylpropionic acid]",powerful irreversible DDC inhibitors,,,,,,,
Oc1ccc(/C=N/n2c(S)nnc2-c2ccccc2)cc1O [Compound 37],,,2.4 ± 0.3 µM,1.8 ± 1.1 µM,18.4,competitive inhibitors,1.5 ± 0.2 µM,
COc1cccc(-c2nnc(S)n2/N=C/c2ccc(O)c(O)c2)c1 [Compound 45],,,6.2 ± 0.3 µM,,"16,7",,1.5 ± 0.3 µM,2 ± 0.1 µM
